Experiments:
Type in all cases: biochemical
[1] = target: PKC theta kinase (Homo sapiens, UniProt Q04759); assay: PKC theta coupled-enzyme (NADH consumption) kinase assay; conditions: 18 nM PKC theta, 240 μM ATP, 30° C., initial rate at 340 nm; read-out: Ki PKC theta
Protocol: (§1) An assay buffer solution was prepared which consisted of 100 mM HEPES (pH 7.5), 10 mM MgCl2, 25 mM NaCl, 0.1 mM EDTA and 0.01% Brij. […] To 60 μL of this enzyme buffer, in a 384 well plate, was added 2 μL of VRT stock solution in DMSO. […] The enzyme reaction was initiated by the addition of 5 μL stock ATP solution prepared in assay buffer to a final assay concentration of 240 μM. Initial rate data was determined from the rate of change of absorbance at 340 nm (corresponding to stoichiometric consumption of NADH) using a Molecular Devices Spectramax plate reader (Sunnyvale, Calif.) over 15 mins at 30° C. For each Ki determination 12 data points covering the VRT concentration range of 0-20 μM were obtained in duplicate (DMSO stocks were prepared from an initial 10 mM VRT stock with subsequent 1:2 serial dilutions). Ki values were calculated from initial rate data by non-linear regression using the Prism software package (Prism 4.0a, Graphpad Software, San Diego, Calif.).

[2] = target: PKC delta kinase (Homo sapiens, UniProt Q05655); assay: PKC delta coupled-enzyme (NADH consumption) kinase assay; conditions: 46 nM PKC delta, 150 μM ATP, 30° C., initial rate at 340 nm
Protocol: as §1, with “To 16” for “To 60”, “added 1” for “added 2”, “of 16” for “of 5”, “of 150” for “of 240”

[3] = target: PKC alpha kinase (Homo sapiens, UniProt P17252); assay: PKC alpha coupled-enzyme (NADH consumption) kinase assay; conditions: 4.5 nM PKC alpha, 130 μM ATP, 100 μM CaCl2, 30° C.; read-out: Ki PKC alpha
Protocol: An assay buffer solution was prepared which consisted of 100 mM HEPES (pH 7.5), 10 mM MgCl2, 25 mM NaCl, 0.1 mM EDTA, 100 μM CaCl2 and 0.01% Brij. An enzyme buffer containing reagents to final assay concentrations of 0.002% Triton X-100, 100 μg/mL Phosphatidylserine, 20 μg/mL Diacylglycerol, 360 μM NADH, 3 mM phosphoenolpyruvate, 70 μg/mL pyruvate kinase, 24 μg/mL lactate dehydrogenase, 2 mM DTT, 150 μM substrate peptide ([…] SEQ ID NO. 1) and 4.5 nM PKC alpha kinase was prepared in assay buffer. To 16 μL of this enzyme buffer, in a 384 well plate, was added 1 μL of VRT stock solution in DMSO. The mixture was allowed to equilibrate for 10 mins at 30° C. The enzyme reaction was initiated by the addition of 16 μL stock ATP solution prepared in assay buffer to a final assay concentration of 130 μM. Initial rate data was determined from the rate of change of absorbance at 340 nm (corresponding to stoichiometric consumption of NADH) using a Molecular Devices Spectramax plate reader (Sunnyvale, Calif.) over 15 mins at 30° C. For each Ki determination 12 data points covering the VRT concentration range of 0-20 μM were obtained in duplicate (DMSO stocks were prepared from an initial 10 mM VRT stock with subsequent 1:2 serial dilutions). Ki values were calculated from initial rate data by non-linear regression using the Prism software package (Prism 4.0a, Graphpad Software, San Diego, Calif.).

Sequence of PKC theta kinase (Q04759 whole entry): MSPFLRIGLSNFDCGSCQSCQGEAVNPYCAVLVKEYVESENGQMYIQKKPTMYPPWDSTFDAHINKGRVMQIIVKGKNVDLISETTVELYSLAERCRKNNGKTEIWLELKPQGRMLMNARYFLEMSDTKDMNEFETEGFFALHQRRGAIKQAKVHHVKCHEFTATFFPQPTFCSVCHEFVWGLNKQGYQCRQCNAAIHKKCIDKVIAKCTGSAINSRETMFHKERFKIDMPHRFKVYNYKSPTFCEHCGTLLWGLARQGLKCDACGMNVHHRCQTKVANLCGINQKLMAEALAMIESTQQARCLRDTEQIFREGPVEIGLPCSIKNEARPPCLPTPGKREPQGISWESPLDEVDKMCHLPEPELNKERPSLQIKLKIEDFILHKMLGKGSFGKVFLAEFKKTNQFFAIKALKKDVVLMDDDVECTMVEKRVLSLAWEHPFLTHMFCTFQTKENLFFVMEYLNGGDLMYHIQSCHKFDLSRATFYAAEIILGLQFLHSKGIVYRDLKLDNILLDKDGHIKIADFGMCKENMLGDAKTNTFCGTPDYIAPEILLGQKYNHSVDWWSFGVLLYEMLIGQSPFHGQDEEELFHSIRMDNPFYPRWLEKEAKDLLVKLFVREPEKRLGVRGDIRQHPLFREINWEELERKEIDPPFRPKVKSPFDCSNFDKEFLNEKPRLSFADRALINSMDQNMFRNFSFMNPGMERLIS
Sequence of PKC delta kinase (Q05655 whole entry): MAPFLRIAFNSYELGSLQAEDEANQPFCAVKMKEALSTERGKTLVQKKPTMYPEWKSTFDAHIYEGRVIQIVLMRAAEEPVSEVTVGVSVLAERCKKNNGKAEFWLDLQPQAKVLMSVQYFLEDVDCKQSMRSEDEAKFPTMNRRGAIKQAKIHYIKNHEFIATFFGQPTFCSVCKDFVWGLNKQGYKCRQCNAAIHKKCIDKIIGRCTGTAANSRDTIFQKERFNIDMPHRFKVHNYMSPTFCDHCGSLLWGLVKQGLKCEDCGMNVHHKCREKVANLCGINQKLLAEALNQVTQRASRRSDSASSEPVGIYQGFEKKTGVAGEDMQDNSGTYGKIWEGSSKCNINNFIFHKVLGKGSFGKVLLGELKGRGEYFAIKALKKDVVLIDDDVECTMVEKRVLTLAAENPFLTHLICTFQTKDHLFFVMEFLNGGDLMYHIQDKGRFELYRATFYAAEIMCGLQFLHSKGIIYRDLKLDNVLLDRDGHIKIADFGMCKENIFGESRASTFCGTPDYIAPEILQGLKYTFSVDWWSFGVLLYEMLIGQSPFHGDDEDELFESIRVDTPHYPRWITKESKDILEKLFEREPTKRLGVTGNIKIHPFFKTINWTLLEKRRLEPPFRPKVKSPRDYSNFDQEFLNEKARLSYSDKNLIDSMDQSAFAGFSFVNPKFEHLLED

Ki [1] [nM] | Ki [2] [nM] | Ki [3] [nM] | SMILES
< 1 | < 50 | < 500 | CC(CO)[C@@](C)(O)[C@@H]1CN(c2nc(-c3n[nH]c4ncccc34)c(F)cc2F)CCN1 (stereo partly drawn) [Compound 40]
< 50 | < 500 | > 1250 | CC(CO)[C@@](C)(O)[C@@H]1CN(c2nc(-c3n[nH]c4ncccc34)c(F)cc2F)CCN1 (stereo partly drawn) [Compound 39]

Further lines, the molecule ahead of its results:

SMILES | Ki [1] [nM] | Ki [2] [nM] | Ki [3] [nM]
CC(O)(C1CC1)C1CN(c2nc(-c3n[nH]c4ncccc34)c(F)cc2Cl)CCN1 (stereo not drawn) [Compound 30] | < 1 | < 10 | < 500
OC(C1CC1)C1CN(c2nc(-c3n[nH]c4ncccc34)c(F)cc2F)CCN1 (stereo not drawn) [Compound 29] | < 1 | < 50 | < 500
CCC(O)C1CN(c2nc(-c3n[nH]c4ncccc34)c(F)cc2Cl)CCN1 (stereo not drawn) [Compound 18] | < 50 | < 500 | > 1250
